Structures are written as SMILES.

The assay deals with A549. Nature of the assay: Antiproliferative against human A549 cells assessed as viable cells pretreated with MS023 for 24 hrs followed by compound addition at 10 uM measured after for 24 hrs relative to control. The following applies: A549, 24 h, read-out: Activity.
Consider `CCCCCCCc1ccc(CCc2cccc(O)c2C(=O)O)cc1`, for which the viability at 10 µM is 54.2%. Then `O=C(O)c1ccc(O)c2ncccc12`, with 54.2%; and `O=C(c1cncc(Br)c1)N1CCC(N2CCCC2)CC1`, with 54.2%; and `N#CC[C@@H](C1CCCC1)n1cc(-c2ncnc3[nH]ccc23)cn1`, with 54.2%. Then `O=C(c1ccc(Cl)cc1Cl)n1nnc2ccccc21`, with 54.2%; and `CN(C)CCCNC(=O)c1ccc(-c2cc(O)c3ncccc3c2)cc1`, with 54.2%; and `CN(C)c1ccc(C(=O)NCCCCCCC(=O)NO)cc1`, with 54.2%. Then `Cc1cc(Cl)ccc1OCCCC(=O)NO`, with 54.2%; and `O=C(O)[C@H](Cc1c[nH]c2ccccc12)N1C(=O)c2ccccc2C1=O`, with 54.2%; and `Cc1cc(Nc2nc(N[C@@H](C)c3ccc(F)cc3)c(C#N)cc2F)n[nH]1`, with 54.2%.

Consider `COc1cc2c(NC3CCN(CC4CCCCC4)CC3)nc(N3CCCN(C(C)C)CC3)nc2cc1OCCCN1CCCCC1`, for which the viability at 10 µM was 54.2%. With `O=C1NC(=O)/C(=C/c2cccc(C(F)(F)F)c2)S1` the figure was 54.2%; with `Cc1sc2c(c1C)C(c1ccc(Cl)cc1)=N[C@@H](CC(=O)OC(C)(C)C)c1nnc(C)n1-2`, 54.2%; with `Clc1ccc(N/N=C(\c2ccccc2)c2ccccn2)nc1`, 54.2%. For `Cc1cnc(Nc2ccc(N3CCN(C)CC3)cc2)nc1Nc1cccc(S(=O)(=O)NC(C)(C)C)c1`, the viability at 10 µM is 54.2%. Then `COc1cc2c(Nc3ccc(NC(=O)c4ccccc4)cc3)ncnc2cc1OCCCN1CCOCC1`, with 54.2%.

With `N[C@@H]1CCCN(c2c(/C=C3\SC(=O)NC3=O)cccc2-c2ccccc2)C1`, the viability at 10 µM amounted to 54.2%.

As to `CN1CCN(c2cccc(Nc3nc4c(-c5ccc(S(C)(=O)=O)cc5)cccn4n3)c2)CC1`, the viability at 10 µM worked out at 54.2%. Then `CC(C)N(CCCNC(=O)Nc1ccc(C(C)(C)C)cc1)C[C@H]1O[C@@H](n2ccc3c(N)ncnc32)[C@H](O)[C@@H]1O`, with 54.2%; and `COc1ccc(Cn2ccc3ccc(C(=O)NO)cc32)cc1`, with 54.2%; and `CC(=O)N1c2ccc(-c3ccc(C(=O)O)cc3)cc2[C@H](Nc2ccc(Cl)cc2)C[C@@H]1C`, with 54.2%. On to `COc1ccccc1S(=O)(=O)Nc1ccc2c(c1)CN(C)C(=O)N2`, for which the viability at 10 µM is 54.2%. Turning to `Cc1cc(Nc2ccc(NC(=O)c3ccc(Nc4ccnc5ccccc45)cc3)cc2)nc(N)n1`, the viability at 10 µM came out at 54.2%.

Take `COc1ccc(C(=O)C2CCN(CC(=O)N(Cc3nc4c(c(=O)[nH]3)COCC4)CC3CC3)CC2)cc1`: the viability at 10 µM amounted to 54.2%.

With `O=C(c1ccc(C(=O)N2CCC(N3CCCC3)CC2)c(Nc2ccccc2)c1)N1CCC(N2CCCC2)CC1`, the viability at 10 µM came to 54.2%. Then `Cc1cc(/N=N/c2ccc(S(=O)(=O)Nc3ccccn3)cc2)c(N)cc1O`, with 54.2%; and `CC(C)N(CCCNC(=O)Nc1ccc(C(C)(C)C)cc1)C[C@H]1O[C@@H](n2cc(Br)c3c(N)ncnc32)[C@H](O)[C@@H]1O`, with 54.2%; and `C[C@H](NC(=O)CCc1nc2ccccc2c(=O)[nH]1)c1ccccc1`, with 54.2%.

For the molecule `COc1cc2c(cc1OCCCN1CCCC1)N=C(N)C21CCC1`, the viability at 10 µM stood at 54.2%.

In the case of `O=C(NCC1(c2nc(-c3ccccc3)cs2)CCOCC1)c1cccc(-c2noc(C(F)(F)F)n2)c1`, the viability at 10 µM was determined as 54.2%. Then `CCOC(=O)Nc1cc(-c2ccc(C)c(NS(C)(=O)=O)c2)nn2c(C)nnc12`, with 54.2%. As to `O=C(O)CNC(=O)c1c(O)c2ccccc2n(Cc2ccccc2)c1=O`, the viability at 10 µM was determined as 54.2%. Then `O=C(O)CCNc1cc(N2CCc3ccccc3CC2)nc(-c2ccccn2)n1`, with 54.2%; and `COc1cc2nc(N3CCCC3)nc(NCCCCCN3CCCC3)c2cc1OC`, with 54.2%; and `CCC(CC)n1ccc2c(C(=O)NCc3c(C)cc(C)[nH]c3=O)cc(C#N)cc21`, with 54.2%. Consider `CCCc1cc2c(N3CCN(C4=NCC(C)(C)S4)CC3)ncnc2s1`, for which the viability at 10 µM turned out to be 54.2%. Then `COc1cc(C)[nH]c(=O)c1CNC(=O)c1c(C)n([C@H](C)C2CCOCC2)c2ccccc12`, with 54.2%; and `CCS(=O)(=O)N1CCC([C@@H](C)n2c(C)c(C(=O)NCc3c(OC)cc(C)[nH]c3=O)c3ccccc32)CC1`, with 54.2%. For the molecule `COc1ccc(CCc2nc3cc(-c4c(C)noc4C)ccc3n2C[C@H](C)N2CCOCC2)cc1Cl`, the viability at 10 µM was 54.2%. Then `CCN(c1cc(C#CCN2CCOCC2)cc(C(=O)NCc2c(C)cc(C)[nH]c2=O)c1C)[C@H]1CC[C@H](N(C)CCOC)CC1`, with 54.2%; and `CC(C)c1cc2c(N3CCN(C4=NCC(C)(C)S4)CC3)ncnc2s1`, with 54.2%. `CC1=NN(c2ccc(C(=O)O)cc2)C(=O)/C1=C/c1ccc(-c2cc(C)c(C)cc2[N+](=O)[O-])o1`: the viability at 10 µM was determined as 54.2%.

For `CCCOc1ccn2c(C(C)=O)cc(-c3ccccc3S(C)(=O)=O)c2c1`, the viability at 10 µM is 54.2%. Consider `O=C(/C=C/N1C[C@H]2C[C@@H]1CN2c1ccccn1)c1ccccc1O`, for which the viability at 10 µM is 54.2%. With `CCn1cc(-c2cccc(C(F)(F)F)c2)c2sc(C(=N)NC3CCS(=O)(=O)CC3)cc2c1=O` the figure was 54.2%. As for `CN1CCc2c(c3ccccc3n2Cc2ccc(C(=O)NO)cc2)C1`, the viability at 10 µM worked out at 54.2%. Turning to `COc1cc(-c2cn(C)c(=O)c3cnccc23)cc(OC)c1CN(C)C`, the viability at 10 µM was 54.2%.

Regarding `CCC(CC)(NC(=O)C(C)C)C(=O)N[C@@H](CCCNC(=N)N)C(=O)NC1(C(=O)NC(c2ccc(F)cc2)c2ccc(F)cc2)CCCC1`, the viability at 10 µM is 54.2%. With `Cc1cc(C)c(CNC(=O)c2cc(-c3ccc(N4CCN(C)CC4)nc3)cc3c2c(C)cn3C(C)C)c(=O)[nH]1` the figure was 54.2%. With `COC(=O)c1ccc2c(c1)nc(NC(=O)c1ccccc1)n2CCCc1ccccc1` the figure was 54.2%; with `N#Cc1ccc(-c2csc(NN=C3CCCC3)n2)cc1`, 54.2%. With `O=C(NC[C@H](O)CN1CCc2ccccc2C1)c1cc(NC2COC2)ncn1` the figure was 54.2%; with `O=C(NCC(=O)N1CCCC1)Nc1ccc2cnccc2c1`, 54.2%. In the case of `Nc1cc(F)ccc1NC(=O)/C=C/c1cnn(C/C=C/c2ccccc2)c1`, the viability at 10 µM turned out to be 54.2%.

Regarding `O=C(COc1cccc2c(=O)[nH]ccc12)c1ccccc1`, the viability at 10 µM worked out at 54.2%. `Cc1cc(N2C[C@@H](C)N[C@@H](C)C2)ncc1-c1ccc(-c2nc3c(ccn3C)c(=O)[nH]2)cc1`: the viability at 10 µM worked out at 54.2%.

Regarding `NC(=O)C1CCCc2c1[nH]c1ccc(Cl)cc21` (stereo not drawn), the viability at 10 µM came out at 54.2%. For `c1ccc([C@@H]2C[C@H]2NC2CCNCC2)cc1`, the viability at 10 µM is 54.2%. Then `N[C@H]1C[C@@H]1c1ccc(-c2cccc(O)c2)cc1`, with 54.2%; and `O=C(Nc1ccc(-c2ccnc(Nc3ccc(N4CCOCC4)cc3)n2)cc1)[C@@H]1CCCN1`, with 54.2%. In the case of `Cc1sc2c(c1C)C(c1ccc(Cl)cc1)=N[C@@H](CC(N)=O)c1nnc(C)n1-2`, the viability at 10 µM worked out at 54.2%.

Regarding `O=C(NC[C@H](O)CN1CCc2ccccc2C1)c1ccnc(NC2CCC2)c1`, the viability at 10 µM amounted to 54.2%. Then `N[C@H]1CC[C@H](N[C@@H]2C[C@H]2c2ccccc2)CC1`, with 54.2%. Take `Fc1cc(-c2cccc3ncc(-c4cnn(C5CCNCC5)c4)nc23)cc(F)c1CN1CCOCC1`: the viability at 10 µM came to 54.2%. With `COc1cc2ncnc(Nc3ccc(O)c(Br)c3)c2cc1OC` the figure was 54.2%.

For the molecule `CCCCCCCCCC(=O)N[C@@H](Cc1c[nH]c2ccccc12)C(=O)N[C@H](CC(N)=O)C(=O)N[C@@H](CC(=O)O)C(=O)N[C@@H]1C(=O)NCC(=O)N[C@@H](CCCN)C(=O)N[C@@H](CC(=O)O)C(=O)N[C@H](C)C(=O)N[C@@H](CC(=O)O)C(=O)NCC(=O)N[C@H](CO)C(=O)N[C@@H]([C@H](C)CC(=O)O)C(=O)N[C@@H](CC(=O)c2ccccc2N)C(=O)O[C@@H]1C`, the viability at 10 µM was determined as 54.2%. Then `O=C([C@@H](Cc1cccc(C(F)(F)F)c1)NS(=O)(=O)c1cc(F)c2c(c1)CCNC2)N1CCCC1`, with 54.2%; and `CCN1CCN(C(=O)Cc2ccc(Nc3ncc(F)c(Nc4ccc(C(=O)Nc5ccccc5Cl)cc4)n3)cc2)CC1`, with 54.2%; and `CN(CC[C@H](N)CC(=O)N[C@H]1C=C[C@H](n2ccc(N)nc2=O)O[C@@H]1C(=O)O)C(=N)N`, with 54.2%. Then `CC(C)N(CCC(=O)c1ccc2ccccc2c1)Cc1ccccc1`, with 54.2%; and `N#C/C(=C\c1ccc(O)c(O)c1)C(=O)NCc1ccccc1`, with 54.2%; and `COc1cc2nc(N3CCCN(C)CC3)nc(NC3CCN(Cc4ccccc4)CC3)c2cc1OC`, with 54.2%. With `COc1cc2c(cc1NS(=O)(=O)c1ccc(Br)cc1C)n(C)c(=O)n2C` the figure was 54.2%; with `Nc1nccc2c1ncn2[C@@H]1C=C(CO)[C@@H](O)[C@H]1O`, 54.2%; with `O=C(O)c1ccc(CN2CCC(CN[C@@H]3C[C@H]3c3ccccc3)CC2)cc1`, 54.2%. Regarding `NC1=NC(=O)/C(=C\c2ccc(O)cc2)S1`, the viability at 10 µM was 54.2%. On to `CNNCc1ccc(C(=O)NC(C)C)cc1`, for which the viability at 10 µM was 54.2%.

Consider `CCOC(=O)CCNc1cc(N2CCc3ccccc3CC2)nc(-c2ccccn2)n1`, for which the viability at 10 µM was 54.2%. Then `CCCOc1ccc(CCc2nc3cc(-c4c(C)noc4C)ccc3n2CCN2CCOCC2)cc1`, with 54.2%; and `CN1CCCN(C(=O)c2cccc(-c3ccc(/C=C4/C(=O)Nc5ccc(Cl)cc54)o3)c2)CC1`, with 54.2%; and `CCn1c2ccccc2c2cc(CNCc3ccccc3OC)ccc21`, with 54.2%. Then `CN(C)Cc1ccc(-c2nc3cccc4c3n2CCNC4=O)cc1`, with 54.2%; and `O=C(CCCCCN1C(=O)c2cccc3cccc(c23)C1=O)NO`, with 54.2%.

Values taken from ChEMBL document CHEMBL5712922, “Synergistic effects of type I PRMT and PARP inhibitors against non-small cell lung cancer cells” (Clin Epigenetics, 2021).
